Where two headings read alike, the source gives them in different places.
Assays:
THP-1 cells [1] = assay: MCP-1 Induced Chemotaxis in THP-1 Cells; assay type: cell-based; settings: THP-1 cells, MCP-1 0.01 μg/mL, 3 hours, read-out: Inhibition of MCP-1 Induced Chemotaxis IC50
CCR2 = biological target: T1, CCR2 (Homo sapiens, UniProt P41597)
T1 sequence (P41597 1-360 isoform P41597-2): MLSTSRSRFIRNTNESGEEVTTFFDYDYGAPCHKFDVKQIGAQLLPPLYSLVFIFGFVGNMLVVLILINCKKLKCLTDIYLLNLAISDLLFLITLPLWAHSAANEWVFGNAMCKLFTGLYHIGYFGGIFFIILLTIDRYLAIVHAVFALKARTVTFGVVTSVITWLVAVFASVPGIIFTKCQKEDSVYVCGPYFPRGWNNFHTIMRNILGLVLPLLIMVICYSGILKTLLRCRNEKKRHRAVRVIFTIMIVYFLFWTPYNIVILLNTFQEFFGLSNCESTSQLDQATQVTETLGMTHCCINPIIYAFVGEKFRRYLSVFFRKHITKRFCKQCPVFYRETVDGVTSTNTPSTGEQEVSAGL

THP-1 cells [2] = settings: for IC50: Homo sapiens
[3] = THP-1, read-out: Inhibition of MCP-1 Induced Calcium Ion Influx IC50

Structure (SMILES)	IC50 (THP-1 cells [1]; Homo sapiens) [nM]	IC50 (CCR2) [nM]	IC50 (THP-1 cells [2]; [3]) [nM]	other results
CS(=O)(=O)Nc1ccc2[nH]cc(C3CCN(C(CO)C4CCN(C(=O)/C=C/c5cc(F)c(F)c(F)c5)CC4)CC3)c2c1 (stereo not drawn) [Cpd 201, N-{3-[1-(2-hydroxy-1-{1-[(2E)-3-(3,4,5-trifluoro-phenyl)-acryloyl]-piperidin-4-yl}-ethyl)-piperidin-4-yl]-1H-indol-5-yl}-methanesulfonamide]	3	1	0.6	–
O=C(O)C(C1CCN(C(=O)Nc2cc(C(F)(F)F)cc(C(F)(F)F)c2)CC1)N1CCC(c2c[nH]c3ccccc23)CC1 (stereo not drawn) [Cpd 136, [1-(3,5-bis-trifluoromethyl-phenylcarbamoyl)-piperidin-4-yl]-[4-(1H-indol-3-yl)-piperidin-1-yl]-acetic acid]	140	80	130	–
O=C(O)C(C1CCN(C(=O)/C=C/c2cc(F)c(F)c(F)c2)CC1)N1CCC(c2c[nH]c3cccnc23)CC1 (stereo not drawn) [Cpd 207, [4-(1H-pyrrolo[3,2-b]pyridin-3-yl)-piperidin-1-yl]-{1-[(2E)-3-(3,4,5-trifluoro-phenyl)-acryloyl]-piperidin-4-yl}-acetic acid]	190	210	110	–
Cc1cc(C)cc(NC(=O)N2CCC(C(C(=O)O)N3CCC(c4c[nH]c5ccccc45)CC3)CC2)c1 (stereo not drawn) [Cpd 135, [1-(3,5-dimethyl-phenylcarbamoyl)-piperidin-4-yl]-[4-(1H-indol-3-yl)-piperidin-1-yl]-acetic acid]	770	940	7100	–
Cc1ccc(NC(=O)N2CCC(C(C(=O)O)N3CCC(c4c[nH]c5ccccc45)CC3)CC2)cc1 (stereo not drawn) [Cpd 99, [4-(1H-indol-3-yl)-piperidin-1-yl]-(1-p-tolylcarbamoyl-piperidin-4-yl)-acetic acid]	2500	810	1600	–
COc1ccc2[nH]cc(C3CCN(C(CO)C4CCN(C(=O)/C=C/c5cc(F)c(F)c(F)c5)CC4)CC3)c2c1 (stereo not drawn) [Cpd 166, (2E)-1-(4-{2-hydroxy-1-[4-(5-methoxy-1H-indol-3-yl)-piperidin-1-yl]-ethyl}-piperidin-1-yl)-3-(3,4,5-trifluoro-phenyl)-propenone]	30	6	8	–
CS(=O)(=O)Nc1ccc2[nH]cc(C3CCN(C(C(=O)O)C4CCN(C(=O)Nc5ccc(Cl)c(Cl)c5)CC4)CC3)c2c1 (stereo not drawn) [Cpd 109, [1-(3,4-dichloro-phenylcarbamoyl)-piperidin-4-yl]-[4-(5-methanesulfonylamino-1H-indol-3-yl)-piperidin-1-yl]-acetic acid]	30	20	30	–
O=C(/C=C/c1cc(F)cc(F)c1)N1CCC(C(CO)N2CCC(c3ccncc3)CC2)CC1 (stereo not drawn) [Cpd 182, (2E)-3-(3,5-difluoro-phenyl)-1-{4-[2-hydroxy-1-(3,4,5,6-tetrahydro-2H-[4,4′]bipyridinyl-1-yl)-ethyl]-piperidin-1-yl}-propenone]	350	330	7870	–
COc1ccc(C2CCN(C(CO)C3CCN(C(=O)/C=C/c4cc(F)c(F)c(F)c4)CC3)CC2)cc1 (stereo not drawn) [Cpd 158, (2E)-1-(4-{2-hydroxy-1-[4-(4-methoxy-phenyl)-piperidin-1-yl]-ethyl}-piperidin-1-yl)-3-(3,4,5-trifluoro-phenyl)-propenone]	100	100	140	–
COc1ccc(C2CCN([C@@H](CO)C3CCN(C(=O)/C=C/c4cc(F)cc(F)c4)CC3)CC2)cc1 [Cpd 181, (2E)-3-(3,5-difluoro-phenyl)-1-(4-{(1R)-2-hydroxy-1-[4-(4-methoxy-phenyl)-piperidin-1-yl]-ethyl}-1-piperidin-1-yl)-propenone]	70	40	160	–
O=C(/C=C/c1cc(F)c(F)c(F)c1)N1CCC(C(CO)N2CCC(c3c[nH]c4ccc(F)cc34)CC2)CC1 (stereo not drawn) [Cpd 170, (2E)-1-(4-{1-[4-(5-fluoro-1H-indol-3-yl)-piperidin-1-yl]-2-hydroxy-ethyl}-piperidin-1-yl)-3-(3,4,5-trifluoro-phenyl)-propenone]	–	–	–	IC50 (THP-1 cells [1]; Homo sapiens, THP-1, 3 h): 9 nM; IC50 (CCR2; Inhibition of MCP-1 Binding IC50, 125I labeled MCP-1 binding to CCR2, THP-1 cells): 40 nM; IC50 (THP-1 cells [2]; THP-1, read-out: Inhibition of MCP-1 Induced Calcium Ion Influx IC50, THP-1 cells, 0.2 μM MCP-1, FLIPR): 10 nM
O=C(/C=C/c1ccc(F)cc1)N1CCC(C(CO)N2CCC(c3c[nH]c4ccc(F)cc34)CC2)CC1 (stereo not drawn) [Cpd 169, (2E)-1-(4-{1-[4-(5-fluoro-1H-indol-3-yl)-piperidin-1-yl]-2-hydroxy-ethyl}-piperidin-1-yl)-3-(4-fluoro-phenyl)-propenone]	55	57	170	–
COc1ccc(C2CCN(C(CO)C3CCN(C(=O)Nc4ccc(F)c(F)c4)CC3)CC2)cc1 (stereo not drawn) [Cpd 141, 4-{2-hydroxy-1-[4-(4-methoxy-phenyl)-piperidin-1-yl]-ethyl}-piperidine-1-carboxylic acid (3,4-difluoro-phenyl)-amide]	760	340	6900	–
COc1ccccc1C1CCN(C(CO)C2CCN(C(=O)/C=C/c3cc(F)cc(F)c3)CC2)CC1 (stereo not drawn) [Cpd 203, (2E)-3-(3,5-difluoro-phenyl)-1-(4-{2-hydroxy-1-[4-(2-methoxy-phenyl)-piperidin-1-yl]-ethyl}-piperidin-1-yl)-propenone]	1200	510	5000	–
CC(=O)OCC(C1CCN(C(=O)/C=C/c2cc(F)c(F)c(F)c2)CC1)N1CCC(c2c[nH]c3ccccc23)CC1 (stereo not drawn) [Cpd 236, acetic acid 2-[4-(1H-indol-3-yl)-piperidin-1-yl]-2-{1-[(2E)-3-(3,4,5-trifluoro-phenyl)-acryloyl]-piperidin-4-yl}-ethyl ester]	20	20	30	–
O=C(/C=C/c1ccc(F)c(Br)c1)N1CCC(C(CO)N2CCC(c3c[nH]c4ccc(F)cc34)CC2)CC1 (stereo not drawn) [Cpd 172, (2E)-3-(3-bromo-4-fluoro-phenyl)-1-(4-{1-[4-(5-fluoro-1H-indol-3-yl)-piperidin-1-yl]-2-hydroxy-ethyl}-piperidin-1-yl)-propenone]	30	32	20	–
O=C(Nc1cc(F)cc(F)c1)N1CCC(C(CO)N2CCC(c3c[nH]c4ccccc34)CC2)CC1 (stereo not drawn) [Cpd 129, 4-{2-hydroxy-1-[4-(1H-indol-3-yl)-piperidin-1-yl]-ethyl}-piperidine-1-carboxylic acid (3,5-difluoro-phenyl)-amide]	80	40	20	–
Cc1cccc(NC(=O)N2CCC(C(C(=O)O)N3CCC(c4c[nH]c5ccccc45)CC3)CC2)c1 (stereo not drawn) [Cpd 98, [4-(1H-indol-3-yl)-piperidin-1-yl]-(1-m-tolylcarbamoyl-piperidin-4-yl)-acetic acid]	2200	890	1850	–
COc1cccc2c(C3CCN(C(CO)C4CCN(C(=O)/C=C/c5cc(F)c(F)c(F)c5)CC4)CC3)c[nH]c12 (stereo not drawn) [Cpd 133, (2E)-1-(4-{2-hydroxy-1-[4-(7-methoxy-1H-indol-3-yl)-piperidin-1-yl]-ethyl}-piperidin-1-yl)-3-(3,4,5-trifluoro-phenyl)-propenone]	40	10	0.8	–
CC(=O)NCC(C1CCN(C(=O)/C=C/c2ccc(Cl)c(Cl)c2)CC1)N1CCC(c2c[nH]c3ccccc23)CC1 (stereo not drawn) [Cpd 215]	460	90	20	–
COc1ccc2[nH]cc(C3CCN(C(CO)C4CCN(C(=O)/C=C/c5ccc(Cl)c(Cl)c5)CC4)CC3)c2c1 (stereo not drawn) [Cpd 162, (2E)-3-(3,4-dichloro-phenyl)-1-(4-{2-hydroxy-1-[4-(5-methoxy-1H-indol-3-yl)-piperidin-1-yl]-ethyl}-piperidin-1-yl)-propenone]	20	7	2	–
O=C(/C=C/c1cc(F)cc(F)c1)N1CCC(C(CO)N2CCC(c3n[nH]c4ccccc34)CC2)CC1 (stereo not drawn) [Cpd 173, (2E)-3-(3,5-difluoro-phenyl)-1-(4-{2-hydroxy-1-[4-(1H-indazol-3-yl)-piperidin-1-yl]-ethyl}-piperidin-1-yl)-propenone]	–	–	–	IC50 (THP-1 cells [1]): 130 nM; IC50 (CCR2; read-out: Inhibition of MCP-1 Binding IC50, 125I labeled MCP-1 binding to CCR2, THP-1 cells): 430 nM; Inhibition of MCP-1 Induced Calcium Ion Influx, percent inhibition (THP-1 cells [2]; test concentration of 25 μM, IC50 not obtained): 21%
O=C(/C=C/c1cc(F)c(F)c(F)c1)N1CCC(C(CO)N2CCC(c3ccncc3)CC2)CC1 (stereo not drawn) [Cpd 183, (2E)-1-{4-[2-hydroxy-1-(3,4,5,6-tetrahydro-2H-[4,4′]bipyridinyl-1-yl)-ethyl]-piperidin-1-yl}-3-(3,4,5-trifluoro-phenyl)-propenone]	400	470	9250	–
O=C(/C=C/c1ccc(F)c(Br)c1)N1CCC(C(CO)N2CCC(c3ccncc3)CC2)CC1 (stereo not drawn) [Cpd 186, (2E)-3-(3-bromo-4-fluoro-phenyl)-1-{4-[2-hydroxy-1-(3,4,5,6-tetrahydro-2H-[4,4′]bipyridinyl-1-yl)-ethyl]-piperidin-1-yl}-propenone]	960	360	6100	–
